{"source": "paper PMC5681654", "about": "“Dual protein kinase and nucleoside kinase modulators for rationally designed polypharmacology” (Nature Communications, 2017)", "key": {"[1]": {"molecular_target": "dCK-C3S-S74E (Homo sapiens, UniProt P27707, C45S/C59S/C9S/S74E)", "sequence (P27707 whole entry C9S/C45S/C59S/S74E)": "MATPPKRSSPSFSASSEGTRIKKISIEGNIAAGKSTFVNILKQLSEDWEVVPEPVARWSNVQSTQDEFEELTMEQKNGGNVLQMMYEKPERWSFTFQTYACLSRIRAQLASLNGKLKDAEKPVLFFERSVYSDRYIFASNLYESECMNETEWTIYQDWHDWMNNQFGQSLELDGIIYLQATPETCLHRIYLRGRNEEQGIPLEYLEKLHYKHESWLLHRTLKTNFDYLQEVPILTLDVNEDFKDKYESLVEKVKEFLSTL", "assay": "Isothermal titration calorimetry (ITC)", "experimental": "ITC was used to evaluate the binding between dCK-C3S-S74E and the selected compounds. […] Purified dCK-C3S-S74E and the compounds were diluted in the ITC buffer containing 20 mM HEPES, pH 7.5, and 200 mM NaCl. Titrations were carried out on a MicroCal ITC200 microcalorimeter (GE Healthcare) at 25 °C using 16 or 24 injections of the titrant (1−3 mM compound in the syringe) into the analyte (100 or 300 μM protein in the cell). A first small injection (0.2 μl) was included in the titration protocol in order to remove air bubbles trapped in the syringe prior titration. Because of the low solubility of several ligands, sequential titrations were employed to achieve sufficient molar ratios for reliable model fitting, and these titrations were linked together prior to data analysis using ConCat32 software (Microcal). Raw data were scaled after setting the zero to the titration saturation heat value."}, "[2]": {"molecular_target": "recombinant human dCK (Homo sapiens, UniProt P27707)", "sequence (P27707 whole entry)": "as the sequence (P27707 whole entry C9S/C45S/C59S/S74E) above, with S9C, S45C, S59C, E74S counted along it", "assay": "dCK kinetic assay (PK/LDH coupled, UTP as phosphate donor)", "conditions": "for effect on dCK enzymatic phosphorylation of gemcitabine: Supplementary Fig. 8; for effect on nucleoside phosphorylation by dCK: substrates 2′dC and gemcitabine, UTP, inhibitor/protein ratio 22", "experimental": "Kinetic analyses were performed using a spectrophotometric continuous enzymatic-coupled assay using pyruvate kinase (PK) and lactate dehydrogenase (LDH). […] All measurements were performed on a BMG Labtech Pherastar FS apparatus. All assays were performed in triplicate and each experiment was performed at least twice. The data are presented as mean ± s.d. The results were plotted as kinetics and the velocity was determined for each condition as the slope of the linear range of the curve. […] K m (Michaelis−Menten constant) and V max (maximal velocity) values were determined using PRISM software (GraphPad Software Inc.) by fitting the experimental data according to the Michaelis−Menten approximation defined as Equation 1.1 V=Vmax⋅S∕Km+S"}, "[3]": {"system": "LNCaP (prostate) cancer cell line", "assay": "Cell proliferation assay (CellTiter-Blue), LNCaP", "format": "cell-based, human", "experimental": "(§1) At the end of incubation, 10 µl of CellTiter-Blue Reagent were added to each well. The absorbance was read at 590 nm. The effect of the drugs on cells was expressed as a percentage of proliferation compared to untreated cells. […] Drug synergy effects were analysed using Combenefit (Cancer Research Cambridge Institute), a software tool that enables the visualisation, analysis and quantification of drug combination effects[49]. The data from combination treatments were processed using three synergy reference models: highest single agent (HSA) model, Loewe additivity model and Bliss independence model for HRT18 and LnCAP cell lines."}, "[4]": {"system": "HRT18 (colon) cancer cell line", "assay": "Cell proliferation assay (CellTiter-Blue), HRT18", "format": "cell-based, human", "experimental": "as §1"}, "[5]": {"molecular_target": "T1, uridine-cytidine kinase 1 (UCK1) (Homo sapiens, UniProt Q9HA47)", "T1 construct": "made in house; host or cells: E. coli BL21 DE3", "T1 sequence (Q9HA47 1-277)": "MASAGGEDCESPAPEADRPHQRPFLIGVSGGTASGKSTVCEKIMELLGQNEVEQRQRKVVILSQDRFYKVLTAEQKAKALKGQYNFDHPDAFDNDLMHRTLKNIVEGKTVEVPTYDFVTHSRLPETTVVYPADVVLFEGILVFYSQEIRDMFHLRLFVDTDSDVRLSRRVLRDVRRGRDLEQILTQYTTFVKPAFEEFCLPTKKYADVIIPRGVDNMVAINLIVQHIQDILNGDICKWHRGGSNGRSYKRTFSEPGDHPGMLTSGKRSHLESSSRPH", "assay": "UCK1 kinetic assay (PK/LDH coupled, ATP as phosphate donor)", "format": "biochemical", "conditions": "masitinib/protein ratios 0, 1, 10, 100", "description": "Kinetic analyses were performed using a spectrophotometric continuous enzymatic-coupled assay using pyruvate kinase (PK) and lactate dehydrogenase (LDH). […] . […] All assays were performed in triplicate and each experiment was performed at least twice. The data are presented as mean ± s.d. The results were plotted as kinetics and the velocity was determined for each condition as the slope of the linear range of the curve. […] . K m (Michaelis−Menten constant) and V max (maximal velocity) values were determined using PRISM software (GraphPad Software Inc.) by fitting the experimental data according to the Michaelis−Menten approximation defined as Equation 1.1 V=Vmax⋅S∕Km+S"}, "[6]": {"molecular_target": "T2, thymidine kinase (TK1) (Homo sapiens, UniProt P04183)", "T2 sequence (P04183 2-234 limits assumed)": "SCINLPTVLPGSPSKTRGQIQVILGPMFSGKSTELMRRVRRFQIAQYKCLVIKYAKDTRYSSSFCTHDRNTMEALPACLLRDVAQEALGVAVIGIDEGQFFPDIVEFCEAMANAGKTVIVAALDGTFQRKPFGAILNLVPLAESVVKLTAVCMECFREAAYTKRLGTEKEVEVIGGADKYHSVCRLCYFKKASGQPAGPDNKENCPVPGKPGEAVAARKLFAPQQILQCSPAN", "assay": "TK1 kinetic assay (HTRF Transcreener ADP assay)", "conditions": "masitinib/protein ratios 1, 5, 10, 20, 40", "experimental": "ADP and ADP-d2 compete for the binding to a monoclonal anti-ADP antibody labelled with Europium (Eu^3+) cryptate. […] The obtained signal is inversely proportional to the concentration of ADP in the sample. All measurements were performed on a BMG Labtech Pherastar FS apparatus."}, "[7]": {"system": "CHO cells (constitutive dCK)", "assay": "Cell proliferation assay (CellTiter-Blue), CHO", "format": "cell-based, Chinese hamster", "conditions": "gemcitabine 0−1 µM, 5 days", "experimental": "as §1"}, "[8]": {"molecular_target": "biotinylated dCK-C3S-S74E (Homo sapiens, UniProt P27707, C45S/C59S/C9S/S74E)", "sequence (P27707 whole entry C9S/C45S/C59S/S74E)": "as the sequence (P27707 whole entry C9S/C45S/C59S/S74E) above", "assay": "Bio-layer interferometry kinetics, immobilised biotinylated dCK", "experimental": "BLI measurements were carried out using an Octet RED96 instrument (ForteBio). Biotinylated dCK was immobilised on SSA biosensors at a concentration of 5 μM after 1200 s. Free streptavidin sites were blocked by incubating with 10 μg ml^−1 biocytin (Sigma-Aldrich) for 100 s and 1% BSA for 1000 s. A control set of SSA biosensors were prepared in parallel by blocking the surface with biocytin instead of protein. A three-point concentration series were prepared for each compound and were measured using 60 s association and 140 s dissociation steps at 30 °C with a shake speed of 1000 r.p.m. All measurements were performed in binding buffer containing 20 mM HEPES, pH 7.5, 200 mM NaCl, 0.1% BSA and 1% DMSO. Each experiment was performed at least twice and K D, k on and k off values were determined using the global fitting procedure in the ForteBio Data Analysis Software."}, "[9]": {"system": "A549 (lung) cancer cell line", "assay": "Cell proliferation assay (CellTiter-Blue), A549", "format": "cell-based, human", "conditions": "gemcitabine 0−100 µM or masitinib 0−10 µM alone, 5 days", "experimental": "as §1"}, "[10]": {"system": "CHO dCK Rescue cells (partially reconstituted dCK)", "assay": "Cell proliferation assay (CellTiter-Blue), CHO dCK Rescue", "format": "cell-based, Chinese hamster", "conditions": "CHO dCK Rescue (low dCK expression); gemcitabine 0−1 µM; 5 days", "experimental": "At the end of incubation, 10 µl of CellTiter-Blue Reagent were added to each well. The absorbance was read at 590 nm. The effect of the drugs on cells was expressed as a percentage of proliferation compared to untreated cells.\nCHO dCK deficient cells (CHO dCK-) were plated in 96-well plates at a density of 5000 cells per well and incubated overnight. The cells were transfected with the pMSCV insert free (vector control) and pMSCV-dCK respectively, using FuGENE 6 Transfection Reagent (Promega) according to manufacturer recommendations. Two days after transfection, cells were plated in 6-well plates and selected in 1 mg ml^-1 Geniticin-G418 (Gibco) for 2 weeks. The positive clones were picked and expanded to establish cell lines. The stable transfection cell clones, named as CHO dCK Rescue, were controlled by western blot analysis for dCK expression levels."}, "[11]": {"system": "CHO dCK- cells (deficient dCK)", "assay": "Cell proliferation assay (CellTiter-Blue), CHO dCK-", "format": "cell-based, Chinese hamster", "conditions": "gemcitabine 0−1 µM, 5 days", "experimental": "as §1"}}, "note": "Entries after “also recorded” stand apart in the source; their conditions may differ.", "data": [{"smiles": "Nc1ncn([C@H]2C[C@H](O)[C@@H](CO)O2)c(=O)n1", "note": "[Decitabine, decitabine]", "values": [{"measurement": "Kd", "setting": "[1]", "value": "31 ± 5.4", "unit": "µM"}]}, {"smiles": "CNC(=O)c1ccccc1Sc1ccc2c(/C=C/c3ccccn3)n[nH]c2c1", "note": "[axitinib]", "values": [{"measurement": "effect on dCK enzymatic phosphorylation of gemcitabine", "setting": "[2]", "value": "none of the compounds showed an activation effect"}]}, {"smiles": "COc1cc(Nc2c(C#N)cnc3cc(OCCCN4CCN(C)CC4)c(OC)cc23)c(Cl)cc1Cl", "note": "[bosutinib]", "values": [{"measurement": "effect on nucleoside phosphorylation by dCK", "setting": "[2]", "value": "most active"}]}, {"smiles": "Cc1cc(Nc2cc(N3CCN(C)CC3)nc(Sc3ccc(NC(=O)C4CC4)cc3)n2)[nH]n1", "note": "[tozasertib]", "values": [{"measurement": "effect on nucleoside phosphorylation by dCK", "setting": "[2]", "value": "most active"}]}, {"smiles": "Cc1ccc(NC(=O)c2ccc(CN3CCN(C)CC3)cc2)cc1Nc1nc(-c2cccnc2)cs1", "note": "[masitinib]", "values": [{"measurement": "drug synergy with gemcitabine (Combenefit: HSA, Loewe, Bliss models)", "setting": "[3]; LnCAP", "value": "synergetic effect"}, {"measurement": "drug synergy with gemcitabine (Combenefit: HSA, Loewe, Bliss models)", "setting": "[4]", "value": "synergetic effect"}, {"measurement": "modulation of UCK1 enzymatic activity", "setting": "[5]", "value": "didn’t produce an enzymatic modulation; also recorded: did not observe an enzymatic activation"}, {"measurement": "modulation of TK1 enzymatic activity", "setting": "[6]", "value": "didn’t produce an enzymatic modulation; also recorded: did not observe an enzymatic activation"}]}, {"smiles": "C#Cc1cccc(Nc2ncnc3cc(OCCOC)c(OCCOC)cc23)c1", "note": "[erlotinib]", "values": [{"measurement": "effect on dCK enzymatic phosphorylation of gemcitabine", "setting": "[2]", "value": "none of the compounds showed an activation effect"}]}, {"smiles": "CN[C@@H]1C[C@H]2O[C@@](C)([C@@H]1OC)n1c3ccccc3c3c4c(c5c6ccccc6n2c5c31)C(=O)NC4", "note": "[staurosporine]", "values": [{"measurement": "effect on dCK enzymatic phosphorylation of gemcitabine", "setting": "[2]", "value": "none of the compounds showed an activation effect"}]}, {"smiles": "Cc1ccc(NC(=O)c2ccc(CN3CC[C@H](N(C)C)C3)c(C(F)(F)F)c2)cc1Nc1nccc(-c2cncnc2)n1", "note": "[bafetinib]", "values": [{"measurement": "effect on nucleoside phosphorylation by dCK", "setting": "[2]", "value": "most active"}]}, {"smiles": "Nc1ccn([C@@H]2O[C@H](CO)[C@@H](O)C2(F)F)c(=O)n1", "note": "[gemcitabine]", "values": [{"measurement": "sensitivity to gemcitabine", "setting": "[7]", "value": "strong sensitivity to gemcitabine"}, {"measurement": "BLI signal for substrate binding", "setting": "[8]", "value": "could not detect any signal"}, {"measurement": "anti-proliferative effect, single agent", "setting": "[3]; LNCaP, gemcitabine 0−100 µM or masitinib 0−10 µM alone, 5 days", "value": "could not induce strong anti-proliferative effects"}, {"measurement": "Kd", "setting": "[1]", "value": 22.2, "unit": "µM"}, {"measurement": "anti-proliferative effect, single agent", "setting": "[9]", "value": "could not induce strong anti-proliferative effects"}, {"measurement": "sensitivity to gemcitabine", "setting": "[10]", "value": "restored the capacity of CHO cells to respond to gemcitabine treatment"}, {"measurement": "sensitivity to gemcitabine", "setting": "[11]", "value": "did not show any anti-proliferative effect"}, {"measurement": "anti-proliferative effect, single agent", "setting": "[4]; gemcitabine 0−100 µM or masitinib 0−10 µM alone, 5 days", "value": "could not induce strong anti-proliferative effects"}]}]}
